The record followed here is patent publication US20090264384A1, “INDOLE, BENZIMIDAZOLE, AND BENZOLACTAM BORONIC ACID COMPOUNDS, ANALOGS THEREOF AND METHODS OF USE THEREOF” (Nuada, Inc., priority 2004, published 2009).

One data set addresses T1, CB2(h) (Homo sapiens, UniProt P34972).
T1 construct: expressed in transfected cells; host or cells: HEK-293 cells
Description: CB2(h) binding assay. To be noted: 1.0E−05 M; read-out: % Inhibition of Control Specific Binding.

The target of another data set is T2, A3(h) (Homo sapiens, UniProt P0DMS8).
T2 construct: expressed in transfected cells; host or cells: HEK-293 cells
Description: A3(h) binding assay. The conditions noted are these: read-out: % Inhibition of Control Specific Binding.

The next data set has as its system AMPA. Description: AMPA binding assay. More on the design: species or system rat. To be noted: 1.0E−05 M.
The target in a further data set is T3, A2A(h) (Homo sapiens, UniProt P29274).
T3 construct: expressed in transfected cells; host or cells: HEK-293 cells
Description: A2A(h) binding assay. To be noted: 1.0E−05 M.

The test system of a further data set is Phosphodiesterase 4(h). As to the kind of experiment: Phosphodiesterase 4(h) enzyme assay. It is filed as biochemical, human. To be noted: 1.0E−05 M.
The test system of the next data set is Na^+ channel (site 2). The data set is classed as binding, rat. To be noted: 1.0E−05 M.
The test system of the next data set is BZD (central). As to the kind of experiment: BZD (central) binding assay. The conditions noted are these: 1.0E−05 M. More on the design: species or system rat.
The target in a further data set is T4, Choline transporter (Rattus norvegicus, UniProt Q9JMD7).
T4 construct: rat striatum; from tissue; host or cells: rat striatum
T4 sequence (Q9JMD7 1-580): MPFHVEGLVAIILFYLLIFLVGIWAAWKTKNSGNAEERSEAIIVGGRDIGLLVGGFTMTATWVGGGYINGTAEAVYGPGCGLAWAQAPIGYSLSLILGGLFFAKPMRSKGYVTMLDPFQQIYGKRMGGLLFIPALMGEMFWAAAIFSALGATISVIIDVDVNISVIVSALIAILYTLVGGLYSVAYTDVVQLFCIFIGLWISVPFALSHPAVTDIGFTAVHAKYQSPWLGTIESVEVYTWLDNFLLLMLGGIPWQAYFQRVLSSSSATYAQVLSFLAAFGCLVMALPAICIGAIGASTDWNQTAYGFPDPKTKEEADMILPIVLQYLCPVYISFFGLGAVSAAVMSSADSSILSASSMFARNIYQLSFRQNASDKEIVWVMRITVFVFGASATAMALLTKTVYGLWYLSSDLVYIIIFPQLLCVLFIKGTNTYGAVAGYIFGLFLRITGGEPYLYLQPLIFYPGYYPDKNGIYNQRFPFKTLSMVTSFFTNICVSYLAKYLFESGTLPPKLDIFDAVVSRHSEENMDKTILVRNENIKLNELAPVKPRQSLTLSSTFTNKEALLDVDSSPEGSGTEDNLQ
Description: Choline transporter binding assay. The conditions noted are these: 1.0E−05 M; read-out: % Inhibition of Control Specific Binding.

Another data set relates to K^+V channel. Description: K^+V channel binding assay. More on the design: species or system rat. The conditions noted are these: 1.0E−05 M.
In another data set the target is T5, MAO-A(h) (Homo sapiens, UniProt P21397).
T5 construct: human placenta; from tissue; host or cells: human placenta
Description: MAO-A(h) enzyme assay. To be noted: 1.0E−05 M. The data set is classed as biochemical.

A further data set has as its system I1 (peripheral). As to the kind of experiment: I1 (peripheral) binding assay. The conditions noted are these: 1.0E−05 M. More on the design: species or system bovine.
The target of a further data set is T6, CRF1 (Rattus norvegicus, UniProt P35353).
T6 construct: from tissue; host or cells: rat pituitary gland
Description: CRF1 binding assay. The conditions noted are these: read-out: % Inhibition of Control Specific Binding.

In a further data set the test system is Adenylyl cyclase (basal). Description: Adenylyl cyclase (basal) enzyme assay. To be noted: 1.0E−05 M. The data set is classed as biochemical, rat.
Another data set deals with T7, CB1(h) (Homo sapiens, UniProt P21554).
T7 construct: expressed in transfected cells; host or cells: HEK-293 cells
Description: CB1(h) binding assay. The conditions noted are these: 1.0E−05 M; read-out: % Inhibition of Control Specific Binding.

In a further data set the test system is α2 (non-selective). As to the kind of experiment: α2 (non-selective) binding assay. More on the design: species or system rat. To be noted: 1.0E−05 M.
The next data set relates to 5-HT (non-selective). Description: 5-HT (non-selective) binding assay. The conditions noted are these: 1.0E−05 M. More on the design: species or system rat.
A further data set deals with T8, Phosphodiesterase 5(h) (Homo sapiens, UniProt O76074).
T8 construct: human platelets; from tissue; host or cells: human platelets
As to the kind of experiment: Phosphodiesterase 5(h) enzyme assay. The data set is classed as biochemical. The conditions noted are these: 1.0E−05 M.

The next data set concerns M (non-selective). As to the kind of experiment: M (non-selective) binding assay. More on the design: species or system rat. The conditions noted are these: 1.0E−05 M.
In another data set the target is CYP1A2 (Homo sapiens, UniProt P05177). As to the kind of experiment: ADME-Tox: In vitro Metabolism (Cytochrome P450, fluorogenic substrates BFC, CEC, MFC). More on the design: inhibition: dose or concentration left out as unconfirmed. The conditions noted are these: human.
The next data set has as its target CYP3A4 (Homo sapiens, UniProt P08684). Described as above. More on the design: inhibition: dose or concentration left out as unconfirmed. The conditions noted are these: human.
Data set [1] deals with colitis provoked by trinitrobenzene sulphonic acid (TNBS). As to the kind of experiment: Rat model of colitis provoked by TNBS, 3 days, treatment from Day −1 (CCI-7308). The data set is classed as in vivo. The conditions noted are these: vs CMC group. The text has this:
In the study, colonic macroscopic injury has been assessed, as has colonic weight as a reflection of colonic oedema, along with determination of MPO activity (Bradley et al, 1982) as an index of white cell infiltration for the evaluation of tissue injury. The methods and protocol used were substantially similar to those in Example 39, with some differences described below. TNBS Challenge—Male Wistar rats (270-330 g) were randomised into groups of 10-11 before commencement of the study. The following primary parameters were measured in the study: In addition, the weight of the colonic segment was assessed as an indirect and non-specific marker of oedema. The body weight of the animals was also determined and expressed as % change from the day of challenge. Treatments. All challenged groups were dosed orally twice daily from Day −1. The groups for study were: Colon homogenates for cytokine measurements. […] Tissue homogenates were lysed for 30 min. on ice, and then centrifuged (10 min., 14, 000×g). The aliquots of the supernatant were stored at −20° C. until use (Ten Hove et al., 2001). Tumour Necrosis Factor-a Activity. The TNF-α levels were determined with quantitative TNF-α solid-phase Enzyme Linked ImmunoSorbent Assay (ELISA), which is based on the sandwich principle (HyCult biotechnology b. V;. Cat number: […] At the end of the ELISA assay, the samples were measured spectrophotometrically (Benchmark Microplate reader, Bio-Rad Lab; λ=450 nm). The samples were diluted 2 or 4 times with the sample buffer included in the kit. The TNF-α values were expressed as pg/mg protein. This commercially available kit (Hycult Biotechnology b.v. Uden, The Netherlands. Catalogue number: […]

Setting [2] is: 50 mg/kg/day p.o. in divided doses.

Usually inhibition stands for the change of the read-out against control, counted positive when it falls.

T3 sequence (P29274 whole entry): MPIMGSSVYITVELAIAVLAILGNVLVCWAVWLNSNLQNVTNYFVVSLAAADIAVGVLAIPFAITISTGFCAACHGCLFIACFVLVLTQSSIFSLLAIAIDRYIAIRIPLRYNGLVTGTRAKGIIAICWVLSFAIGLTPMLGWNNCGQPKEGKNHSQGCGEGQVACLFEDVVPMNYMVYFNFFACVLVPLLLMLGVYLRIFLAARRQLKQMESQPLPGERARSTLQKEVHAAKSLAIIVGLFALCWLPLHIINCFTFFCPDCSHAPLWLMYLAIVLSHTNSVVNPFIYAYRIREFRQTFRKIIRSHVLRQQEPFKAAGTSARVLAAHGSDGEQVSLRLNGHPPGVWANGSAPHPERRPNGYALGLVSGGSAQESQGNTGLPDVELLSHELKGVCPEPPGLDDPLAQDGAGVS
CYP1A2, sequence (P05177 whole entry): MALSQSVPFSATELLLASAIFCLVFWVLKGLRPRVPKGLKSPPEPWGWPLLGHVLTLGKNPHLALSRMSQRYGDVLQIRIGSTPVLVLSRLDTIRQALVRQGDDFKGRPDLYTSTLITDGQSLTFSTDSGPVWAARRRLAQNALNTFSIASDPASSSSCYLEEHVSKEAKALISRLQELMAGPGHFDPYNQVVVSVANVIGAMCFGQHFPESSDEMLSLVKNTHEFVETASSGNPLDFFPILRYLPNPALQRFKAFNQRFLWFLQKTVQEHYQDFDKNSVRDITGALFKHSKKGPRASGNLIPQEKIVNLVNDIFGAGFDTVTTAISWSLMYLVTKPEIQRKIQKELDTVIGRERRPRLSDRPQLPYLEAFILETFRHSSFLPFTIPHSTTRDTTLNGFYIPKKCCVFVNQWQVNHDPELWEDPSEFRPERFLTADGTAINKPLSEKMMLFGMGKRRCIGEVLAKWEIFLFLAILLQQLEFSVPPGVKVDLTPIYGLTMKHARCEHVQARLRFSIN
T1 sequence (P34972 whole entry): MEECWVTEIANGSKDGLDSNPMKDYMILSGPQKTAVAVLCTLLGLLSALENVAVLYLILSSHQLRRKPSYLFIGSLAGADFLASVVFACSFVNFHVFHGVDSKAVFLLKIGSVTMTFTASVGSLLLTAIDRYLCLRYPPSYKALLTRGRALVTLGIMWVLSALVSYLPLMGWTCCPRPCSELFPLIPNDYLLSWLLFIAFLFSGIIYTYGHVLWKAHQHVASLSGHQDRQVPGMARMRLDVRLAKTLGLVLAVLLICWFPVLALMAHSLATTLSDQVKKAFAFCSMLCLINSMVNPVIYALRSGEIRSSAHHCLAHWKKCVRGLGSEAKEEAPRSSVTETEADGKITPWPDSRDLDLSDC
CYP3A4, sequence (P08684 whole entry): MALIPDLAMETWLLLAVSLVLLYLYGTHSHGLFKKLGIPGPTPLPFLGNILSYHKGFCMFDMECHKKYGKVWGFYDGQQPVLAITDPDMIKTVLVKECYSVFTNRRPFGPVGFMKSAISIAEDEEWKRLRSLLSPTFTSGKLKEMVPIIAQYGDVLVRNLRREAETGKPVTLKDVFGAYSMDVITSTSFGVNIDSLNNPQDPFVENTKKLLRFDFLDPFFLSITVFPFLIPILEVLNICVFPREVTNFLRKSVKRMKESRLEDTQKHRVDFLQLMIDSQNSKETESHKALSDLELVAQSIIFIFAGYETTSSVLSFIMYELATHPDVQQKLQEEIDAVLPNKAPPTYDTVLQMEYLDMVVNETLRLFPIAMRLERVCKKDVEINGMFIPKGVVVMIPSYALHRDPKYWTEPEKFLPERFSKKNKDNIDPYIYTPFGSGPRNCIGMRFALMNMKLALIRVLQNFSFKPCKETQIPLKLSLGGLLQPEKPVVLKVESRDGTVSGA
T2 sequence (P0DMS8 whole entry): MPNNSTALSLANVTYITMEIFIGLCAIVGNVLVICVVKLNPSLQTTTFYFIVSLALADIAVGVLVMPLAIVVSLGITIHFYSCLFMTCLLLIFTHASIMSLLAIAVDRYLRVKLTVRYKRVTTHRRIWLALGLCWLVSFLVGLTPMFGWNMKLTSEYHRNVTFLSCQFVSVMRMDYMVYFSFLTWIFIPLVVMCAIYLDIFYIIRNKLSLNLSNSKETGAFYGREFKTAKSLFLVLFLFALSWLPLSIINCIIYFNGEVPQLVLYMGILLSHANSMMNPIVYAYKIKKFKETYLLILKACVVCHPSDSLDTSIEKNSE
T5 sequence (P21397 whole entry): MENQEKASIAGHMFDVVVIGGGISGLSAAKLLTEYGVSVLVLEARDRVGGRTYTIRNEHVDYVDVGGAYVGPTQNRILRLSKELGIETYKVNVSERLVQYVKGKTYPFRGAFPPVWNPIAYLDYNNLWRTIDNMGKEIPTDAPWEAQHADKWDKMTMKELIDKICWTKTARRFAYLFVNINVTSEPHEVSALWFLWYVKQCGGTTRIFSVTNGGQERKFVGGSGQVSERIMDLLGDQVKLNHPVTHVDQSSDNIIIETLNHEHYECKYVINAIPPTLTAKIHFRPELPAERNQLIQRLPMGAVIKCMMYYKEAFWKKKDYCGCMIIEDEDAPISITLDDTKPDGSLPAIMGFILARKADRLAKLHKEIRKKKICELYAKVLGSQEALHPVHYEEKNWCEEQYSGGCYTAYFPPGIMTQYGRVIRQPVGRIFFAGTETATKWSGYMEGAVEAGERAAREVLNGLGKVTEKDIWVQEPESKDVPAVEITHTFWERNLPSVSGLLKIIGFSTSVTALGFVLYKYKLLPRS
T7 sequence (P21554 whole entry): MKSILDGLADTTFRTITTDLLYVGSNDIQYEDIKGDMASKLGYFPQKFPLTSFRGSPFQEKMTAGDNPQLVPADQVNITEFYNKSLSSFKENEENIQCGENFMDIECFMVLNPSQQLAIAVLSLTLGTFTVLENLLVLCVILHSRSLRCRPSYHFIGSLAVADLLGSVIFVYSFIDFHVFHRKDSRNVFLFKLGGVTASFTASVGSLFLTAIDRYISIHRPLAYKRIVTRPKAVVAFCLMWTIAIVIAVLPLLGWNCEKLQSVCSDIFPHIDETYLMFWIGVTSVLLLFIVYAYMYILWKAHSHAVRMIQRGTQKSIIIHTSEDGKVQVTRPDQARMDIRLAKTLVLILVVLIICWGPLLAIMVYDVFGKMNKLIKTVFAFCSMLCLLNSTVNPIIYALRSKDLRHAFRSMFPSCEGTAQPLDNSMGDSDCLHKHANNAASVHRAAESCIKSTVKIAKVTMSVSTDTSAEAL
T6 sequence (P35353 24-415): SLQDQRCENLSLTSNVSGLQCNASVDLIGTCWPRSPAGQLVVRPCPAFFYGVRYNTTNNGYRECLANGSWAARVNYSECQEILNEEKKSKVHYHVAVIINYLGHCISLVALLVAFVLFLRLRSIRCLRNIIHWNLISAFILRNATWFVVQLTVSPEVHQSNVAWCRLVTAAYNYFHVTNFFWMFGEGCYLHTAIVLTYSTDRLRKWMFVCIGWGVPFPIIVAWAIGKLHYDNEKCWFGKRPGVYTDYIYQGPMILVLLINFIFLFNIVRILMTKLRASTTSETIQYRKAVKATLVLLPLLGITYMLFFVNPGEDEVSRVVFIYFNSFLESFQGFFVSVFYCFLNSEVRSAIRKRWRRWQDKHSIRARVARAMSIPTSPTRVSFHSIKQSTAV

In the case of `N#Cc1ccc2c(ccn2CCCCCB(O)O)c1` [Example 20, 5-(5-cyano-1H-indol-1-yl)pentylboronic acid], the inhibition at 10 µM is -12% at CB2(h); -12% on A3(h); 1% at Choline transporter; -23% on CRF1; -2% at CB1(h). Besides, the “% Inhibition of Control Specific Binding” value was −3% with AMPA; 16% at A2A(h); 13% with Na^+ channel (site 2); 18% in the data set with BZD (central); −5% in the data set with K^+V channel; −6% in the data set with I1 (peripheral). The “% Inhibition of Control Specific Binding” value in the data set with α2 (non-selective) is 7%; with 5-HT (non-selective), −1%; in the data set on M (non-selective), −4%. The figures for the “% Inhibition of Control Values” in the data set on Phosphodiesterase 4(h), on MAO-A(h) and on Phosphodiesterase 5(h) were 91%, 6% and 94%, respectively. Further, the “% Stimulation Relative to Control” value with Adenylyl cyclase (basal) is reported as −3%. Moreover, the values for the inhibition at CYP1A2 and against CYP3A4 were 40% and 97%, respectively.
With `O=C(O)c1cc(/N=N/c2ccc(S(=O)(=O)Nc3ccccn3)cc2)ccc1O` [sulfasalazine, reference compound], the “attenuation of TNBS-induced fall in body weight (% change in body weight at Day 0)” value in data set [1] (50 mg/kg/day p.o. in divided doses b.i.d.) was “reached statistical significance at Day 1, 2 and 3”. For the same compound, the “reduction in area of macroscopic colonic injury” value in data set [1] (50 mg/kg/day p.o. in divided doses, 72 h after TNBS) is “significantly (P<0.001) reduced the extent of macroscopic injury”. In addition, in data set [1] (setting [2]), the “reduction in colon weight” value was “significant (P<0.05) reduction in colon weight”, the “reduction in colonic MPO activity” value is “significantly reduced the elevated colonic levels of MPO” and the “reduction in colonic TNF-α levels” value was “significantly reduced the elevated colonic levels of TNF-α”.
